# Data as given in US5968910A, “Compositions containing two or three inhibitors of different HIV reverse transcriptases” (priority 1994, dated 1999).
# Read-outs that look alike come from different tables or passages of the source.
# System: HIV-1
# Experiment: Breakthrough of mutant HIV-1 strains in CEM cell cultures, single drugs and double/triple combinations
# Type: cell-based
# Details: for activity at 0.04 µg/mL / activity at 0.1 µg/mL / activity at 0.25 µg/mL: Human immunodeficiency virus 1, CCRF-CEM, read-out: HIV-1-induced syncytium formation in CEM cells; for activity at 0.04 µg/mL: single drug 0.04 μg/ml; for activity at 0.1 µg/mL: single drug 0.10 μg/ml; for activity at 0.25 µg/mL: single drug 0.25 μg/ml
# Method: The culture medium consisted of RPMI 1640 containing 10% fetal bovine serum, 2 mM L-glutamine, and 0.075% NaHCO3. The multiplicity of the initial infection was ~1000 times the CCID50 (50% cell culture infective dose). Passages were performed every 3 to 4 days by adding 0.5 to 1.0 ml of the infected culture supernatant to 5 ml of a suspension containing 4×10^5 uninfected CEM cells per ml. Syncytium formation was used as a parameter of virus breakthrough in the cell cultures. In the drug combination experiments, the compounds were combined at the same initial concentrations as used for the two lowest concentrations in the single-drug experiments.
# Compound IV, BHAP and TSAO-m^3 T were added to HIV-1-infected CEM cell cultures at 0.04, 0.10 and 0.25 ug/ml (Compound IV and BHAP) or 1.0, 2.5 and 5.0 μg/ml (TSAO-m^3 T). In addition, various double- and triple-drug combinations of Compound IV, BHAP and TSAO-m^3 T were performed, combining these inhibitors at their lowest (0.04 μg/ml) or intermediary (0.1 μg/ml) concentration as used in the single-drug experiments.
smiles,measurement,setting,value
Cc1occc1C(=S)Nc1ccc(Cl)c(C(=O)OC2CCCC2)c1 [Compound IV],activity at 0.04 µg/mL,"96 h, day 4 post infection",0%
same,activity at 0.1 µg/mL,"96 h, day 4 post infection",0%
same,activity at 0.25 µg/mL,"96 h, day 4 post infection",0%
same,activity at 0.04 µg/mL,"168 h, day 7 post infection",0%
same,activity at 0.1 µg/mL,"168 h, day 7 post infection",0%
same,activity at 0.25 µg/mL,"168 h, day 7 post infection",0%
same,activity at 0.04 µg/mL,"264 h, day 11 post infection",6.25%
same,activity at 0.1 µg/mL,"264 h, day 11 post infection",0%
same,activity at 0.25 µg/mL,"264 h, day 11 post infection",0%
same,activity at 0.04 µg/mL,"336 h, day 14 post infection",12.5%
same,activity at 0.1 µg/mL,"336 h, day 14 post infection",6.25%
same,activity at 0.25 µg/mL,"336 h, day 14 post infection",0%
same,activity at 0.04 µg/mL,"432 h, day 18 post infection",100%
same,activity at 0.1 µg/mL,"432 h, day 18 post infection",6.25%
same,activity at 0.25 µg/mL,"432 h, day 18 post infection",0%
same,activity at 0.04 µg/mL,"504 h, day 21 post infection",100%
same,activity at 0.1 µg/mL,"504 h, day 21 post infection",87.5%
same,activity at 0.25 µg/mL,"504 h, day 21 post infection",3.12%
same,activity at 0.04 µg/mL,"600 h, day 25 post infection",100%
same,activity at 0.1 µg/mL,"600 h, day 25 post infection",87.5%
same,activity at 0.25 µg/mL,"600 h, day 25 post infection",19%
same,activity at 0.04 µg/mL,"672 h, day 28 post infection",100%
same,activity at 0.1 µg/mL,"672 h, day 28 post infection",100%
same,activity at 0.25 µg/mL,"672 h, day 28 post infection",75%
same,activity at 0.04 µg/mL,"768 h, day 32 post infection",100%
same,activity at 0.1 µg/mL,"768 h, day 32 post infection",100%
same,activity at 0.25 µg/mL,"768 h, day 32 post infection",100%
same,activity at 0.04 µg/mL,"840 h, day 35 post infection",100%
same,activity at 0.1 µg/mL,"840 h, day 35 post infection",100%
same,activity at 0.25 µg/mL,"840 h, day 35 post infection",100%
same,activity at 0.04 µg/mL,"936 h, day 39 post infection",100%
same,activity at 0.1 µg/mL,"936 h, day 39 post infection",100%
same,activity at 0.25 µg/mL,"936 h, day 39 post infection",100%
same,activity at 0.04 µg/mL,"1008 h, day 42 post infection",100%
same,activity at 0.1 µg/mL,"1008 h, day 42 post infection",100%
same,activity at 0.25 µg/mL,"1008 h, day 42 post infection",100%
same,activity at 0.04 µg/mL,"1104 h, day 46 post infection",100%
same,activity at 0.1 µg/mL,"1104 h, day 46 post infection",100%
same,activity at 0.25 µg/mL,"1104 h, day 46 post infection",100%
same,activity at 0.04 µg/mL,"1176 h, day 49 post infection",100%
same,activity at 0.1 µg/mL,"1176 h, day 49 post infection",100%
same,activity at 0.25 µg/mL,"1176 h, day 49 post infection",100%
same,activity at 0.04 µg/mL,"1272 h, day 53 post infection",100%
same,activity at 0.1 µg/mL,"1272 h, day 53 post infection",100%
same,activity at 0.25 µg/mL,"1272 h, day 53 post infection",100%
same,activity at 0.04 µg/mL,"1344 h, day 56 post infection",100%
same,activity at 0.1 µg/mL,"1344 h, day 56 post infection",100%
same,activity at 0.25 µg/mL,"1344 h, day 56 post infection",100%
same,activity at 0.04 µg/mL,"1440 h, day 60 post infection",100%
same,activity at 0.1 µg/mL,"1440 h, day 60 post infection",100%
same,activity at 0.25 µg/mL,"1440 h, day 60 post infection",100%
same,activity at 0.04 µg/mL,"1536 h, day 64 post infection",100%
same,activity at 0.1 µg/mL,"1536 h, day 64 post infection",100%
same,activity at 0.25 µg/mL,"1536 h, day 64 post infection",100%
same,activity at 0.04 µg/mL,"1608 h, day 67 post infection",100%
same,activity at 0.1 µg/mL,"1608 h, day 67 post infection",100%
same,activity at 0.25 µg/mL,"1608 h, day 67 post infection",100%
same,activity at 0.04 µg/mL,"1704 h, day 71 post infection",100%
same,activity at 0.1 µg/mL,"1704 h, day 71 post infection",100%
same,activity at 0.25 µg/mL,"1704 h, day 71 post infection",100%
same,activity at 0.04 µg/mL,"1776 h, day 74 post infection",100%
same,activity at 0.1 µg/mL,"1776 h, day 74 post infection",100%
same,activity at 0.25 µg/mL,"1776 h, day 74 post infection",100%
same,activity at 0.04 µg/mL,"1848 h, day 77 post infection",100%
same,activity at 0.1 µg/mL,"1848 h, day 77 post infection",100%
same,activity at 0.25 µg/mL,"1848 h, day 77 post infection",100%
same,virus breakthrough delayed till day,"single drug, highest concentration",21 days
